Measured values reported in PubChem BioAssay AID330 (DTP/NCI, 2004).
Inconclusive results and toxic doses are left out.

System: P388 leukemia ip, CD2F1 mice, survival T/C
Experiment: NCI In Vivo Anticancer Drug Screen. Data for tumor model P388 Leukemia (intraperitoneal) in CD2F1 (CDF1) mice
Conditions: endpoint: median survival time, higher = longer survival
How it was run: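 Mice carrying the transplanted tumor received test compound or vehicle. Survival was recorded in each group, and the value is the treated-group measurement divided by that of the vehicle-treated control group.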

[1] = dose: 100.0 mg/kg/injection, schedule: Q04DX002 (ip), vehicle: Klucel (hydroxypropylcellulose) (HPC)
[2] = dose: 50.0 mg/kg/injection, schedule: Q01DX005 (ip), vehicle: saline
[3] = dose: 100.0 mg/kg/injection, schedule: Q01DX005 (ip), vehicle: saline
[4] = dose: 200.0 mg/kg/injection, schedule: Q01DX005 (ip), vehicle: saline
[5] = dose: 60.0 mg/kg/injection, schedule: Q01DX005 (ip), vehicle: saline with Tween-80
[6] = dose: 120.0 mg/kg/injection, schedule: Q01DX005 (ip), vehicle: saline with Tween-80
[7] = dose: 50.0 mg/kg/injection, schedule: Q01DX005 (ip), vehicle: saline with Tween-80
[8] = dose: 100.0 mg/kg/injection, schedule: Q01DX005 (ip), vehicle: saline with Tween-80
[9] = dose: 200.0 mg/kg/injection, schedule: Q01DX005 (ip), vehicle: saline with Tween-80
[10] = dose: 100.0 mg/kg/injection, schedule: Q01DX001 (ip), vehicle: saline
[11] = dose: 200.0 mg/kg/injection, schedule: Q01DX001 (ip), vehicle: saline
[12] = dose: 400.0 mg/kg/injection, schedule: Q01DX001 (ip), vehicle: saline
[13] = dose: 25.0 mg/kg/injection, schedule: Q01DX009 (ip), vehicle: Klucel (hydroxypropylcellulose) (HPC)
[14] = dose: 50.0 mg/kg/injection, schedule: Q01DX009 (ip), vehicle: Klucel (hydroxypropylcellulose) (HPC)
[15] = dose: 50.0 mg/kg/injection, schedule: Q01DX009 (ip), vehicle: saline with Tween-80
[16] = dose: 100.0 mg/kg/injection, schedule: Q01DX009 (ip), vehicle: saline with Tween-80
[17] = dose: 200.0 mg/kg/injection, schedule: Q01DX009 (ip), vehicle: saline with Tween-80
[18] = dose: 50.0 mg/kg/injection, schedule: Q01DX009 (ip), vehicle: saline
[19] = dose: 100.0 mg/kg/injection, schedule: Q01DX009 (ip), vehicle: saline
[20] = dose: 200.0 mg/kg/injection, schedule: Q01DX009 (ip), vehicle: saline
[21] = dose: 50.0 mg/kg/injection, schedule: Q01DX005 (ip), vehicle: Klucel (hydroxypropylcellulose) (HPC)
[22] = dose: 100.0 mg/kg/injection, schedule: Q01DX005 (ip), vehicle: Klucel (hydroxypropylcellulose) (HPC)
[23] = dose: 25.0 mg/kg/injection, schedule: Q01DX009 (ip), vehicle: saline
[24] = dose: 200.0 mg/kg/injection, schedule: Q01DX005 (ip), vehicle: Klucel (hydroxypropylcellulose) (HPC)
[25] = dose: 200.0 mg/kg/injection, schedule: Q04DX002 (ip), vehicle: Klucel (hydroxypropylcellulose) (HPC)
[26] = dose: 400.0 mg/kg/injection, schedule: Q04DX002 (ip), vehicle: Klucel (hydroxypropylcellulose) (HPC)

SMILES: Cc1cc(=O)n2c(-c3ccc(Cl)cc3)csc2n1
- T/C (dose: 25.0 mg/kg/injection, schedule: Q04DX002 (ip), vehicle: Klucel (hydroxypropylcellulose) (HPC)): 90 % of control
- T/C (dose: 50.0 mg/kg/injection, schedule: Q04DX002 (ip), vehicle: Klucel (hydroxypropylcellulose) (HPC)): 101 % of control
- T/C [1]: 102 % of control

SMILES: O=C(O)C(Cc1cnc[nH]1)[N-]C[N-]C(Cc1cnc[nH]1)C(=O)O.[Pd+2] (stereo unspecified)
- T/C [2]: 100 % of control
- T/C [3]: 97 % of control
- T/C [4]: 100 % of control

SMILES: COc1ccc2c(c1)CCc1cc(OC)ccc1/[N+]([O-])=[N+]\2[O-]
- T/C [5]: 93 % of control
- T/C [6]: 93 % of control
- T/C (dose: 240.0 mg/kg/injection, schedule: Q01DX005 (ip), vehicle: saline with Tween-80): 101 % of control

SMILES: COc1ccc(CC(=O)c2ccc3c(c2O)C=CC(C)(C)O3)cc1OC
- T/C [7]: 98 % of control
- T/C [8]: 99 % of control
- T/C [9]: 89 % of control

SMILES: COc1cc(Cc2ccc3c(c2)OCO3)cc(OC)c1OC
- T/C [10]: 102 % of control
- T/C [11]: 102 % of control
- T/C [12]: 99 % of control

SMILES: COC(=O)/C=C1\C2OC(C1C(=O)OC)C(O)C2O (stereo unspecified)
- T/C [7]: 100 % of control
- T/C [8]: 97 % of control
- T/C [9]: 90 % of control

SMILES: O=[N+]([O-])c1cc(S(=O)(=O)O)cc([N+](=O)[O-])c1Cl
- T/C [13]: 116 % of control
- T/C [14]: 114 % of control
- T/C (dose: 100.0 mg/kg/injection, schedule: Q01DX009 (ip), vehicle: Klucel (hydroxypropylcellulose) (HPC)): 119 % of control

SMILES: Cc1ccc2[nH]c(=S)[nH]c2c1
- T/C (dose: 25.0 mg/kg/injection, schedule: Q01DX009 (ip), vehicle: saline with Tween-80): 95 % of control
- T/C [15]: 94 % of control
- T/C [16]: 96 % of control
- T/C [17]: 93 % of control

SMILES: COc1cc(OC)cc(C(C)(C)C)c1
- T/C [18]: 97 % of control
- T/C [19]: 100 % of control
- T/C [20]: 107 % of control

SMILES: CCN(CC)CCOC(=O)C(OCC(C)C)(c1ccccc1)c1ccccc1
- T/C [21]: 110 % of control
- T/C [22]: 108 % of control

SMILES: COc1cc(O)c(Cc2ccc3c(c2)OCO3)cc1O
- T/C (dose: 2.5 mg/kg/injection, schedule: Q01DX009 (ip), vehicle: saline with Tween-80): 100 % of control
- T/C (dose: 5.0 mg/kg/injection, schedule: Q01DX009 (ip), vehicle: saline with Tween-80): 100 % of control
- T/C (dose: 10.0 mg/kg/injection, schedule: Q01DX009 (ip), vehicle: saline with Tween-80): 115 % of control

SMILES: CCOC(=O)CN=C(c1ccccc1)c1ccccc1
- T/C (dose: 6.25 mg/kg/injection, schedule: Q01DX009 (ip), vehicle: saline): 105 % of control
- T/C (dose: 12.5 mg/kg/injection, schedule: Q01DX009 (ip), vehicle: saline): 105 % of control
- T/C [23]: 105 % of control
- T/C [19]: 89 % of control

SMILES: O=C(O)CC(O)CCO (stereo unspecified)
- T/C [10]: 104 % of control
- T/C [11]: 103 % of control
- T/C [12]: 101 % of control

SMILES: COc1c(CO)c2c(c(OC)c1OC)-c1ccc(OC)c(=O)cc1[C@@H](NC(C)=O)CC2
- T/C [13]: 160 % of control
- T/C [14]: 185 % of control

SMILES: COC(=O)c1ccccc1NC(Cc1ccccc1)=NC(C)(C)C
- T/C [15]: 86 % of control
- T/C [16]: 99 % of control

SMILES: O/N=C1/CCN2CCCc3cccc1c32
- T/C (dose: 132.0 mg/kg/injection, schedule: Q01DX001 (ip), vehicle: saline with Tween-80): 95 % of control
- T/C (dose: 200.0 mg/kg/injection, schedule: Q01DX001 (ip), vehicle: saline with Tween-80): 100 % of control
- T/C (dose: 300.0 mg/kg/injection, schedule: Q01DX001 (ip), vehicle: saline with Tween-80): 100 % of control

SMILES: CCCCC(NC(=O)OCc1ccccc1)C(=O)NC(Cc1c[nH]c2ccccc12)C(=O)O (stereo unspecified)
- T/C [21]: 95 % of control
- T/C [22]: 101 % of control
- T/C [24]: 92 % of control

SMILES: COc1cccc(CCN2C(=O)CCC3=C2CCC3=O)c1
- T/C (dose: 25.0 mg/kg/injection, schedule: Q01DX005 (ip), vehicle: Klucel (hydroxypropylcellulose) (HPC)): 94 % of control
- T/C [21]: 105 % of control
- T/C [22]: 102 % of control
- T/C [24]: 98 % of control

SMILES: Cn1c(=O)c2c(ncn2CCNC(c2ccccc2)c2cccc(Cl)c2)n(C)c1=O (stereo unspecified)
- T/C (dose: 6.25 mg/kg/injection, schedule: Q01DX005 (ip), vehicle: alkali diluted with saline): 101 % of control
- T/C (dose: 12.5 mg/kg/injection, schedule: Q01DX005 (ip), vehicle: alkali diluted with saline): 94 % of control
- T/C (dose: 25.0 mg/kg/injection, schedule: Q01DX005 (ip), vehicle: alkali diluted with saline): 97 % of control

SMILES: CCCCCSSSCCCCC
- T/C [18]: 101 % of control
- T/C [19]: 96 % of control
- T/C [20]: 104 % of control

SMILES: CCN=c1c([N+](=O)[O-])c(NC(=O)c2ccccc2)sn1CC
- T/C [1]: 97 % of control
- T/C [25]: 99 % of control
- T/C [26]: 107 % of control

SMILES: O=C1c2ccccc2C(=O)N1O
- T/C [18]: 93 % of control
- T/C [19]: 100 % of control

SMILES: CCC(=O)OC(C)COc1ccc(C(C)(C)C)cc1 (stereo unspecified)
- T/C [16]: 107 % of control
- T/C [17]: 114 % of control
- T/C (dose: 400.0 mg/kg/injection, schedule: Q01DX009 (ip), vehicle: saline with Tween-80): 117 % of control

SMILES: CNC(=S)N/N=C/c1ccccn1
- T/C [23]: 117 % of control
- T/C [18]: 116 % of control
- T/C [19]: 101 % of control
- T/C [20]: 97 % of control

SMILES: CN(C)c1ccc(C(c2cc3c(cc2O)OCO3)N2CCCC2)cc1 (stereo unspecified)
- T/C (dose: 60.0 mg/kg/injection, schedule: Q01DX005 (ip), vehicle: Klucel (hydroxypropylcellulose) (HPC)): 108 % of control
- T/C (dose: 120.0 mg/kg/injection, schedule: Q01DX005 (ip), vehicle: Klucel (hydroxypropylcellulose) (HPC)): 109 % of control
- T/C (dose: 240.0 mg/kg/injection, schedule: Q01DX005 (ip), vehicle: Klucel (hydroxypropylcellulose) (HPC)): 109 % of control

SMILES: CC1=CC2OC3CC(OC(=O)/C=C/C=C/C(O)C(C)O)C(C)(C2(C)CC1)C31CO1 (stereo unspecified)
- T/C (dose: 0.16 mg/kg/injection, schedule: Q01DX009 (ip), vehicle: saline + alcohol): 109 % of control
- T/C (dose: 0.31 mg/kg/injection, schedule: Q01DX009 (ip), vehicle: saline + alcohol): 113 % of control
- T/C (dose: 0.62 mg/kg/injection, schedule: Q01DX009 (ip), vehicle: saline + alcohol): 109 % of control
- T/C (dose: 1.25 mg/kg/injection, schedule: Q01DX009 (ip), vehicle: saline + alcohol): 109 % of control
- T/C (dose: 2.5 mg/kg/injection, schedule: Q01DX009 (ip), vehicle: saline + alcohol): 120 % of control
- T/C (dose: 5.0 mg/kg/injection, schedule: Q01DX009 (ip), vehicle: saline + alcohol): 123 % of control

SMILES: COc1ccc(CNC(=O)C(CO)N2C(=O)c3ccccc3C2=O)cc1 (stereo unspecified)
- T/C [7]: 96 % of control
- T/C [8]: 100 % of control
- T/C [9]: 90 % of control

SMILES: COC1=CC(=O)C2CC=CC3CC(=O)OC1C32C (stereo unspecified)
- T/C [1]: 100 % of control
- T/C [25]: 94 % of control
- T/C [26]: 100 % of control

SMILES: C=C(CCCCOCOCCOC)c1ccccc1
- T/C [2]: 106 % of control
- T/C [3]: 107 % of control
- T/C [4]: 99 % of control

SMILES: OCc1ccc(O)c(O)c1
- T/C [2]: 116 % of control
- T/C [3]: 123 % of control
- T/C [4]: 123 % of control
- T/C (dose: 400.0 mg/kg/injection, schedule: Q01DX005 (ip), vehicle: saline): 120 % of control

SMILES: O=C(Nc1ccc(S(=O)(=O)F)cc1)/C(=C/c1ccc([N+](=O)[O-])cc1)c1ccccc1
- T/C [5]: 102 % of control
- T/C [6]: 97 % of control

SMILES: OC1COC2C(O)COC12 (stereo unspecified)
- T/C [18]: 102 % of control
- T/C [19]: 90 % of control

SMILES: C/C(=N\Nc1ccccc1)C1CC2C=C(C#N)C1N(Cc1ccccc1)C2 (stereo unspecified)
- T/C (dose: 8.75 mg/kg/injection, schedule: Q01DX005 (ip), vehicle: Klucel (hydroxypropylcellulose) (HPC)): 94 % of control
- T/C (dose: 17.5 mg/kg/injection, schedule: Q01DX005 (ip), vehicle: Klucel (hydroxypropylcellulose) (HPC)): 96 % of control
- T/C (dose: 35.0 mg/kg/injection, schedule: Q01DX005 (ip), vehicle: Klucel (hydroxypropylcellulose) (HPC)): 94 % of control
